In paper PMC10253860, “Kinetic Profile of Urine Metabolites after Acute Intake of a Phenolic Compounds-Rich Juice of Juçara (Euterpe edulis Mart.) and Antioxidant Capacity in Serum and Erythrocytes: A Human Study” (International Journal of Molecular Sciences, 2023):

Key:
[1] = parameters: method as in PMID 12488939, PMID 34430750; details: toluene-free healthy volunteers; cited from earlier work
[2] = Urinary excretion of phenolic metabolites after single 400 mL juçara juice intake (HPLC-DAD, LC-ESI-MS/MS); format: in vivo, human; details: for AUC / Cmax: urine, mean ± SEM, n = 9–10; for AUC: 0–6 h after 400 mL juçara juice; for Cmax: 10 healthy subjects, after 400 mL juçara juice
Source text: Study volunteers were selected according to the following inclusion criteria: no clinical conditions such as cardiovascular, endocrine, gastrointestinal, renal, or hepatic diseases; no visible or known infections or inflammatory processes within three months of the study; no use of medicines or dietary supplements, no smoking, no regular alcohol drinking. The other criteria were BMI < 30 kg/m^2 and no gastric intolerance or complications related to the juçara juice intake. […] The subjects were advised to avoid vegetable and fruit sources of anthocyanins or their derivatives, such as açai, blackberries, blueberries, cherries, red and purple grapes, strawberries, and green and black tea, two days before the study. […] The subjects were also instructed not to practice intense physical activity and not to deprive themselves of sleeping before the outset of the study protocol. […] Subsequently, the participants drank 400 mL of the juçara juice within 5 min. Blood (30, 60, 120, and 360 min) and urine (0–3, 3–6 h) were collected again. The volunteers continued fasting during the 6 h of the sample collection time. The study protocol was based on evidence that anthocyanins appear to be rapidly absorbed and then eliminated within 4 h. […] Blood oxidative stress biomarkers were assessed, and urine metabolites of phenolic compounds were measured.
Phenolic compounds were extracted in urine using Waters OASIS HLB μElution plates (Milford, MA, USA), which were preconditioned with 250 μL methanol and 250 μL 0.2% acetic acid. After urine collection, the samples were immediately acidified with trifluoracetic acid. Aliquots of the samples were applied to the μ Columns of the plates and the phenolic compounds were eluted with methanol acidified with 0.2% acetic acid. The eluate was dried using CentriVap Benchtop Vacuum Concentrators (Labconco, Kansas City, MO, USA), reconstituted with methanol acidified with 5% acetic acid, and filtered with a […] PTEF filter (Millipore, Bedford, MA, USA).
The mobile phase consisted of two solvents: (A) 0.5% formic acid in water and (B) 0.5% formic acid in acetonitrile. The gradient used was 10% (B) at the beginning, 10% at 5 min, 20% at 15 min, 25% at 25 min, 35% at 33 min, 50% at 38 min, 90% at 43–44 min and 10% at 45 min. […] Quantification was based on the calibration curves of the PCA, VA, iVA, HA, HBA, and HPA standards. The concentrations were expressed as μmol/mmol creatinine for urine samples, and the elimination values were expressed in μmol. Urinary creatinine was evaluated using a Labtest kit (Labtest Diagnóstica S.A., Lagoa Santa, Minas Gerais, Brazil). The area under the curve (AUC) was calculated using the trapezoidal rule (data expressed as μmol/h), and the maximum concentration (Cmax) was calculated using the Origin 6.0 software (OriginLab Corporation, Northampton, MA, USA) and expressed as the mean and standard error of the mean (SEM). The samples collected from 0 to 3 h (after the juçara juice intake) were indicated as 3 h urine and the samples collected from 3 to 6 h were designated as 6 h urine to indicate the period of excretion. The standards’ purity varied from 95 to 98%.
Phenolic compounds’ metabolites were identified using a Prominence Liquid Chromatograph (Shimadzu, Japan) coupled to an ion trap Esquires-LC mass spectrometer (Bruker Daltonics, Billerica, MA, USA) with an electrospray ionization (ESI) interface. The chromatography condition was the same as that used for metabolite quantification by HPLC-DAD. After passing through the DAD detector, the flow rate was changed to 0.2 mL/min to inject the samples into the mass spectrometer. ESI was left in the positive mode for anthocyanins and in the negative mode for the other compounds. […] Scanning m/z was 100–1500.

Row | SMILES | normal urine value [1] | average urine concentration at baseline ([2]; baseline samples, before the juice intake) | AUC [2] [µmol/h] | Cmax [2] [µmol/mmol Creatinine]
1 | O=C(O)CNC(=O)c1ccccc1 [Hippuric acid] | 126.36–245.13 µmol/mmol creatinine | around 243.06 µmol/mmol creatinine | 6483.34 ± 1159.82 | 605.80 ± 75.74
2 | O=C(O)Cc1ccc(O)cc1 [Hydroxyphenylacetic acid] |  |  | 3527.78 ± 657.52 | 334.09 ± 46.79
3 | O=C(O)c1ccc(O)c(O)c1.O=C(O)c1ccc(O)c(O)c1 [Protocatechuic acid, 3,4-Dihydroxybenzoic acid (protocatechuic acid)] |  |  | 282.89 ± 49.31 | 28.26 ± 3.62
4 | O=C(O)[C@H]1O[C@@H](Oc2c(-c3ccc(O)cc3)oc3cc(O)cc(O)c3c2=O)[C@H](O)[C@@H](O)[C@@H]1O [Kaempferol glucuronide] |  |  | 138.05 ± 20.58 | 13.62 ± 1.89
5 | COc1cc(C(=O)O)ccc1O[C@@H]1O[C@H](C(=O)O)[C@@H](O)[C@H](O)[C@H]1O [Vanillic acid glucuronide] |  |  | 164.38 ± 14.98 | 16.74 ± 1.33
6 | COc1cc(C(=O)O)ccc1O [Vanillic acid] |  |  | 191.42 ± 25.98 | 20.13 ± 2.27
